What was measured:
Laodelphax striatellus = experiment: Insecticidal test on Laodelphax striatellus (rice seedling dip); type: in vivo; conditions: 192 h, rice seedlings dipped 30 seconds, 3rd-instar larvae, 8 days after inoculation, read-out: insecticidal efficacy (corrected mortality rate), activity level
From the text: Insecticidal Test on Laodelphax striatellus
The condensed heterocyclic compounds represented by the general formula (1) of the present invention or salts thereof were separately dispersed in water and diluted to 500 ppm. Rice plant seedlings (variety: Nihonbare) were dipped in the agrochemical dispersions for 30 seconds. After air-dried, each seedling was put into a separate glass test tube and inoculated with ten 3rd-instar larvae of Laodelphax striatellus, and then the glass test tubes were capped with cotton plugs. At 8 days after the inoculation, the numbers of surviving larvae and dead larvae were counted, the corrected mortality rate was calculated according to the formula shown below, and the insecticidal efficacy was evaluated according to the criteria shown below. Corrected mortality rate (%)=100×(Survival rate in a non-treatment plot−Survival rate in a treatment plot)/Survival rate in a non-treatment plot [Math. 2] Corrected Mortality Rate A: the corrected mortality rate is 100%. B: the corrected mortality rate is 90 to 99%. C: the corrected mortality rate is 80 to 89%. D: the corrected mortality rate is 50 to 79%.

Plutella xylostella = experiment: Insecticidal test on Plutella xylostella (dip of Chinese cabbage seedlings with laid eggs); type: in vivo; conditions: 144 h, seedlings with laid eggs dipped about 30 seconds, 25° C., 6 days after dip treatment, criteria of Test Example 2, read-out: insecticidal efficacy (corrected mortality rate), activity level
From the text: Insecticidal Test on Plutella xylostella
Adults of Plutella xylostella were released onto Chinese cabbage seedlings and allowed to lay eggs thereon. At 2 days after the release of the adults, the Chinese cabbage seedlings with laid eggs were dipped for about 30 seconds in agrochemical dispersions diluted to 500 ppm, each of which contained a different condensed heterocyclic compound represented by the general formula (1) of the present invention as an active ingredient. After air-dried, the seedlings were kept in a thermostatic chamber at 25° C. At 6 days after the dip treatment, the number of hatched larvae per plot was counted, the mortality rate was calculated according to the formula shown below, and the insecticidal efficacy was evaluated according to the criteria of Test Example 2. This test was conducted in triplicate using 10 adults of Plutella xylostella per plot. Corrected mortality rate (%)=100×(Number of hatched larvae in a non-treatment plot−Number of hatched larvae in a treatment plot)/Number of hatched larvae in a non-treatment plot [Math. 3]

SMILES: CCS(=O)(=O)c1cc2ccc(C(F)(F)F)cc2nc1-c1nnc2cc(C(F)(F)C(F)(F)F)ncn12 [Compound 4-27, 3-(ethylsulfonyl)-2-(7-pentafluoroethyl)-[1,2,4]triazolo[4,3-c]pyrimidin-3-yl-7-(trifluoromethyl) quinoline]
- mortality at 500 ppm (Laodelphax striatellus): 100%
- mortality at 500 ppm (Plutella xylostella): 100%

SMILES: CCS(=O)(=O)c1cc(-c2cccc(C(F)(F)F)c2)cnc1-c1nnc2cc(C(F)(F)F)ncn12 [Compound 2-36, 3-(3-(ethylsulfonyl)-5-(3-(trifluoromethyl)phenyl)pyridin-2-yl)-(7-trifluoromethyl)-[1,2,4]Triazolo[4,3-c]Pyrimidine]
- mortality at 500 ppm (Laodelphax striatellus): 100%
- mortality at 500 ppm (Plutella xylostella): 100%
